Assay [1] concerns PMM. To be noted: patient fibroblasts; cited from earlier work.
Assay [2] deals with PMM2-CDG patients. Kind of assay: Clinical observation of lower body strength and speech. The format is in vivo, human. The note with it: P7. As for the experimental part: Two patients were started on epalrestat on single patient investigational new drug (IND) (P5 IRB: 19-010017; IND #145262; P6 Protocol PMM2-CDG-001/A). Epalrestat was initiated on the parents' own initiative in the third patient (P7). Two patients were in their second year of epalrestat treatment, while the third, was in the 3rd year of treatment. Physical, neurological, and biochemical examinations were performed in 3 PMM2-CDG patients at baseline, and at every three months after the start of the epalrestat treatment. Patients underwent NPCRS phenotype severity assessment and biological sampling at every visit. Epalrestat (Ono Pharmaceuticals, Osaka, Japan) was taken orally 3 times per day (TID) before meals in a divided dose, with dosage escalation throughout the treatment. The pharmacological profile of epalrestat was as described elsewhere (Ligezka et al, Ann. Neurol., 90(6):887-900 (2021)). The starting dosage in P5 and P6 was 0.8 mg/kg/day, while P7 was started on 0.5 mg/kg/day due to their young age. P7 dosage was increased to 0.8 mg/day after a month, once safety was established. […] Quantification of goal attainment levels is done on a 5-point scale ranging from −2 to +2, with 0 indicating the expected level of goal attainment. Three individual goals were established by each patient (parent) at baseline and the progress was annually assessed. […]

Assay [3] relates to PMM2-CDG patients. As to the kind of experiment: Liver enzymes (AST, ALT) in patients on epalrestat. Type of assay: in vivo, human. The note with it: for ALT: C < 45 U/l; for AST: C: < 50 U/l. The text has this:
The primary objective of the study was to assess the efficacy and safety of epalrestat treatment in 3 PMM2-CDG pediatric subjects prior to a planned Phase III clinical trial (Oral epalrestat therapy in Pediatric Subjects with PMM2-CDG, NCT04925960). The secondary objective was to assess the ability of epalrestat to improve clinically relevant aspects of PMM2-CDG such as increased urine polyols (sorbitol, mannitol), abnormal glycosylation (carbohydrate deficient transferrin), abnormal coagulation (ATIII=antithrombin III), impaired liver function (ALT=Alanine Transaminase, AST=Aspartate Transaminase), neurologic function (Brief Ataxia Rating Scale=BARS), severity of phenotype (Nijmegen Pediatric CDG Rating Scale=NPCRS). The ability of epalrestat to inhibit polyol production was monitored by evaluating urine polyol levels (sorbitol, mannitol), which are elevated in PMM2-CDG. Next, carbohydrate deficient transferrin, which is abnormal in PMM2-CDG, was evaluated in order to assess improvement of glycosylation following epalrestat treatment. CDT mono-oligo/dioligo ratio and a-oligo/dioligo ratio are used to evaluate glycosylation abnormalities. Transferrin normally occurs with two glycan chains (di-oligo). In the case of glycosylation abnormalities, glycan chains are missing (A-oligo transferrin has no glycan chains, mono-oligo has one glycan chain, di-oligo has two glycan chains). The higher ratio of a-oligo/di-oligo and mono-oligo/di-oligo indicate glycosylation abnormalities are present. Therefore, improvement in a-oligo/di-oligo and mono-oligo/di-oligo ratios can be used to monitor improvement or worsening of glycosylation status. Changes in the liver enzymes AST, ALT, which are frequently elevated in PMM2-CDG, were monitored both as part of a safety study and as part of monitoring clinical improvement in coagulation. Neurologic improvement was assessed by modified BARS scores in 2 patients (3rd patient was not eligible for the test due to age at the start of the trial). NPCRS was assessed at every visit to assess changes in the severity of the patients' phenotype. Additionally, the frequency of adverse events, changes in vital signs, complete blood count, and changes in BMI were monitored.
Two patients were started on epalrestat on single patient investigational new drug (IND) (P5 IRB: 19-010017; IND #145262; P6 Protocol PMM2-CDG-001/A). Epalrestat was initiated on the parents' own initiative in the third patient (P7). Two patients were in their second year of epalrestat treatment, while the third, was in the 3rd year of treatment. Physical, neurological, and biochemical examinations were performed in 3 PMM2-CDG patients at baseline, and at every three months after the start of the epalrestat treatment. Patients underwent NPCRS phenotype severity assessment and biological sampling at every visit. Epalrestat (Ono Pharmaceuticals, Osaka, Japan) was taken orally 3 times per day (TID) before meals in a divided dose, with dosage escalation throughout the treatment. The pharmacological profile of epalrestat was as described elsewhere (Ligezka et al, Ann. Neurol., 90(6):887-900 (2021)). The starting dosage in P5 and P6 was 0.8 mg/kg/day, while P7 was started on 0.5 mg/kg/day due to their young age. P7 dosage was increased to 0.8 mg/day after a month, once safety was established. Blood and urine samples were collected routinely. Urine polyols, carbohydrate deficient transferrin (CDT), anti-thrombin III (ATIII), liver enzymes (ALT, AST), and complete blood count (CBC) were performed. Modified Brief Ataxia Rating Scale was used to assess ataxia in the 2 patients (P5, P6; P7 was not eligible for the test due to age). The modified BARS scale included Archimedes spiral test, but not the abnormalities of the ocular pursuit system and the scale range was 0-54. Goal attainment scale (GAS) was administered as described per study protocol (ClinicalTrials.gov Identifier: NCT04199000). […]

The structures appear in SMILES notation.

On to `CC(/C=C1\SC(=S)N(CC(=O)O)C1=O)=C\c1ccccc1` [epalrestat], for which the PMM enzymatic activity entry in assay [1] is reported as “increase”. The “lower body strength and speech” value in assay [2] is “improvement in lower body strength and speech”. In addition, the ALT in assay [3] (P5, 12 months, 1.5 mg/kg day, baseline 23) came to 24 U/L; in assay [3] (P5, 24 months, 2 mg/kg day, baseline 23), 25 U/L; in assay [3] (P5, 28 months, 3 mg/kg day, baseline 23), 25 U/L; in assay [3] (P6, 12 months, 1.5 mg/kg day, baseline 67) it was 32 U/L; in assay [3] (P6, 18 months, 3 mg/kg day, baseline 67), 49 U/L; in assay [3] (P7, 12 months, 1.5 mg/kg day, baseline 997), 105 U/L. Also, the AST in assay [3] (P5, 12 months, 1.5 mg/kg day, baseline 48) came out at 37 U/L; in assay [3] (P5, 24 months, 2 mg/kg day, baseline 48) it was 34 U/L; in assay [3] (P5, 28 months, 3 mg/kg day, baseline 48), 40 U/L; in assay [3] (P6, 12 months, 1.5 mg/kg day, baseline 58) it was 40 U/L; in assay [3] (P6, 18 months, 3 mg/kg day, baseline 58), 38 U/L; in assay [3] (P7, 12 months, 1.5 mg/kg day, baseline 548), 80 U/L. Besides, the liver transaminase levels result in assay [3] (P5-P7, words) was “improvement”.

Source of the values: US20260335294A1, “TREATING CONGENITAL DISORDERS OF GLYCOSYLATION” (Mayo Foundation for Medical Education and Research, priority 2022, published 2026).
